Laboratory results published in patent US20250304567A1, “PYRROLIDIONE DERIVATIVES AS INHIBITORS OF NF KAPPA B INDUCING KINASE” (priority 2022, published 2025).
pIC50: −log10 of the molar value.

Legend:
[1] = system: p-IKKa levels in L363 (NIK translocated multiple myeloma) cells; test: Effect of compounds on p-IKKa levels in L363 (NIK translocated multiple myeloma) cells (AlphaLISA SureFire Ultra p-IKKa Ser176/180); type: cell-based, human; conditions: Homo sapiens, L-363, p-IKKa levels in L363 cells; average if tested more than once; read-out: Assay 2 IC50
Summary of the method: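 Phospho-IKKa (Ser176/180) in lysates quantified by AlphaLISA after 6 h compound exposure, 11-point threefold dilutions, 0.3% DMSO. L363 cells were pre-stimulated overnight and assayed with 250 ng/ml BAFF and 10 μM MG132; % inhibition fitted sigmoidally for IC50, duplicate curves.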

[2] = target: Recombinant Human NF-kappaB-Inducing Kinase (NIK/MAP3K14) (Homo sapiens, UniProt Q99558); test: Inhibition of auto-phosphorylation of recombinant human NIK/MAP3K14 activity (AlphaScreen); type: biochemical; conditions: 5 μM ATP, 1 nM NIK, average if tested more than once
Summary of the method: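 AlphaScreen detection of phospho-Ser176/180 after 1 nM GST-NIK auto-phosphorylates for 2 h at 25 °C with 5 μM ATP (50 mM Tris pH 7.5, 0.7% DMSO). IC50s come from sigmoidal curves of % inhibition against log dose, using enzyme-free, ATP-free low controls and full-activity high controls.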

Chain of Recombinant Human NF-kappaB-Inducing Kinase (NIK/MAP3K14) (Q99558 whole entry): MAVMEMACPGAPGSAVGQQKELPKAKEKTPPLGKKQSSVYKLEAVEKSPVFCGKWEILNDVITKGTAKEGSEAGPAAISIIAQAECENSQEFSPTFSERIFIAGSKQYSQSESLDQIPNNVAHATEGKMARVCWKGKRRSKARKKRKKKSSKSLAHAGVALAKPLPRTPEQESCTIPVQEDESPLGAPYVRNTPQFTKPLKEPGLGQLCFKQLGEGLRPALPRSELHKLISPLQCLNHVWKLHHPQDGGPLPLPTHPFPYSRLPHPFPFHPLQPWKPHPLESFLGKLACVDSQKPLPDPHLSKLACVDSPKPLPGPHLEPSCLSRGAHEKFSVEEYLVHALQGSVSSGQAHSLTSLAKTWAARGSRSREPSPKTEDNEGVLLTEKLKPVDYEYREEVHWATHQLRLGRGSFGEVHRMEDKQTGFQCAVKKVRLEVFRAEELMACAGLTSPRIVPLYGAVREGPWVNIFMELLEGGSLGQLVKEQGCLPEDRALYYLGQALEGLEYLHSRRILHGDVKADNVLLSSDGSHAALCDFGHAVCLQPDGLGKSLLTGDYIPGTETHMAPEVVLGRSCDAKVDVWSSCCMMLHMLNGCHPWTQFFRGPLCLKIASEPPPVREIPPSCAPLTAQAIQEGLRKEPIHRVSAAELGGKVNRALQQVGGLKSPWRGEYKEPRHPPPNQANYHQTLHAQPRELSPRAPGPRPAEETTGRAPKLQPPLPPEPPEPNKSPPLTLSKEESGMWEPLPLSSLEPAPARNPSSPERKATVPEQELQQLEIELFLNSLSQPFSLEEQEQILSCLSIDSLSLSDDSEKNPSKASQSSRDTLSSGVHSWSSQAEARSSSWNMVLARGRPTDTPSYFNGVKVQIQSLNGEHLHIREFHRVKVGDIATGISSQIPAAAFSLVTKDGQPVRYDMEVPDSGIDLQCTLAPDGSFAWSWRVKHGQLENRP

`CN1CC[C@@](O)(c2cccc(-c3nc(-c4ccnc(NC5CC5)n4)cs3)c2)C1=O` [Example 137, (R)-3-(3-(4-(2-(cyclopropylamino)pyrimidin-4-yl)thiazol-2-yl)phenyl)-3-hydroxy-1-methylpyrrolidin-2-one] showed a pIC50 [1] of less than 6.30 and a pIC50 [2] greater than 7.00.
`Cc1nn(C(F)F)cc1Nc1nccc(-c2csc(-c3cccc([C@]4(O)CCN(C)C4=O)c3)n2)n1` [Example 140, (R)-3-(3-(4-(2-((1-(difluoromethyl)-3-methyl-1H-pyrazol-4-yl)amino)pyrimidin-4-yl)thiazol-2-yl)phenyl)-3-hydroxy-1-methylpyrrolidin-2-one] gave a pIC50 [1] greater than 7.00 and a pIC50 [2] greater than 7.00.
`CN1CC[C@@](O)(c2cccc(-c3nc(-c4ccnc(Nc5cnn(CC(F)F)c5)n4)cs3)c2)C1=O` [Example 141, (R)-3-(3-(4-(2-((1-(2,2-difluoroethyl)-1H-pyrazol-4-yl)amino)pyrimidin-4-yl)thiazol-2-yl)phenyl)-3-hydroxy-1-methylpyrrolidin-2-one] gave a pIC50 [1] greater than 7.00 and a pIC50 [2] greater than 7.00.
`Cc1nccc(Nc2nccc(-c3csc(-c4cccc([C@]5(O)CCN(C)C5=O)c4)n3)n2)n1` [Example 159, (R)-3-Hydroxy-1-methyl-3-(3-(4-(2-((2-methylpyrimidin-4-yl)amino)pyrimidin-4-yl)thiazol-2-yl)phenyl)pyrrolidin-2-one] gave a pIC50 [1] of less than 6.30 and a pIC50 [2] greater than 7.00.
Compound `CN1CC[C@@](O)(c2cccc(-c3nc(-c4ccnc(Nc5ccnn5C5COC5)n4)cs3)c2)C1=O` [Example 160, (R)-3-Hydroxy-1-methyl-3-(3-(4-(2-((1-(oxetan-3-yl)-1H-pyrazol-5-yl)amino)pyrimidin-4-yl)thiazol-2-yl)phenyl)pyrrolidin-2-one] has a pIC50 [1] of less than 6.30 and a pIC50 [2] greater than 7.00.
`COc1cccnc1Nc1nccc(-c2csc(-c3cccc([C@]4(O)CCN(C)C4=O)c3)n2)n1` [Example 161, (R)-3-Hydroxy-3-(3-(4-(2-((3-methoxypyridin-2-yl)amino)pyrimidin-4-yl)thiazol-2-yl)phenyl)-1-methylpyrrolidin-2-one] showed a pIC50 [1] of less than 6.30 and a pIC50 [2] of less than 6.30.
`COc1ccnc(Nc2nccc(-c3csc(-c4cccc([C@]5(O)CCN(C)C5=O)c4)n3)n2)c1` [Example 162, (R)-3-Hydroxy-3-(3-(4-(2-((4-methoxypyridin-2-yl)amino)pyrimidin-4-yl)thiazol-2-yl)phenyl)-1-methylpyrrolidin-2-one] was tested, and the pIC50 [1] was less than 6.30 and the pIC50 [2] was greater than 7.00.
`CN1CC[C@@](O)(c2cccc(-c3nc(-c4ccnc(Nc5ncccc5F)n4)cs3)c2)C1=O` [Example 163, (R)-3-(3-(4-(2-((3-Fluoropyridin-2-yl)amino)pyrimidin-4-yl)thiazol-2-yl)phenyl)-3-hydroxy-1-methylpyrrolidin-2-one] showed a pIC50 [1] of less than 6.30 and a pIC50 [2] of 6.30 to 7.00.
`CN1CC[C@@](O)(c2cccc(-c3nc(-c4ccnc(Nc5cc(C6CC6)nn5C)n4)cs3)c2)C1=O` [Example 164, (R)-3-(3-(4-(2-((3-Cyclopropyl-1-methyl-1H-pyrazol-5-yl)amino)pyrimidin-4-yl)thiazol-2-yl)phenyl)-3-hydroxy-1-methylpyrrolidin-2-one] was tested, and the pIC50 [1] was 6.30 to 7.00 and the pIC50 [2] was greater than 7.00.
For `CN1CC[C@@](O)(c2cccc(-c3nc(-c4ccnc(Nc5nccc(C(F)(F)F)n5)n4)cs3)c2)C1=O` [Example 165, (R)-3-Hydroxy-1-methyl-3-(3-(4-(2-((4-(trifluoromethyl)pyrimidin-2-yl)amino)pyrimidin-4-yl)thiazol-2-yl)phenyl)pyrrolidin-2-one], the pIC50 [1] was less than 6.30 and the pIC50 [2] was 6.30 to 7.00.
`CN1CC[C@@](O)(c2cccc(-c3nc(-c4ccnc(Nc5cccnc5C(F)(F)F)n4)cs3)c2)C1=O` [Example 166, (R)-3-Hydroxy-1-methyl-3-(3-(4-(2-((2-(trifluoromethyl)pyridin-3-yl)amino)pyrimidin-4-yl)thiazol-2-yl)phenyl)pyrrolidin-2-one] gave a pIC50 [1] of less than 6.30 and a pIC50 [2] greater than 7.00.
`CN1CC[C@@](O)(c2cccc(-c3nc(-c4ccnc(Nc5cccc(OC(F)(F)F)n5)n4)cs3)c2)C1=O` [Example 167, (R)-3-Hydroxy-1-methyl-3-(3-(4-(2-((6-(trifluoromethoxy)pyridin-2-yl)amino)pyrimidin-4-yl)thiazol-2-yl)phenyl)pyrrolidin-2-one] showed a pIC50 [1] of less than 6.30 and a pIC50 [2] greater than 7.00.
With `CN1CC[C@@](O)(c2cccc(-c3nc(-c4ccnc(Nc5cccc(OC(F)F)n5)n4)cs3)c2)C1=O` [Example 168, (R)-3-(3-(4-(2-((6-(Difluoromethoxy)pyridin-2-yl)amino)pyrimidin-4-yl)thiazol-2-yl)phenyl)-3-hydroxy-1-methylpyrrolidin-2-one] the pIC50 [1] was less than 6.30 and the pIC50 [2] was greater than 7.00.
In the case of `CN1CC[C@@](O)(c2cccc(-c3nc(-c4ccnc(Nc5cccc(C(F)(F)F)n5)n4)cs3)c2)C1=O` [Example 169, (R)-3-Hydroxy-1-methyl-3-(3-(4-(2-((6-(trifluoromethyl)pyridin-2-yl)amino)pyrimidin-4-yl)thiazol-2-yl)phenyl)pyrrolidin-2-one], the pIC50 [1] was less than 6.30 and the pIC50 [2] was greater than 7.00.
With `CNc1nccc(-c2csc(-c3cccc([C@]4(O)CCN(C)C4=O)c3)n2)n1` [Example 170] the pIC50 [1] was less than 6.30 and the pIC50 [2] was 6.30 to 7.00.
For `CN1CC[C@@](O)(c2cccc(-c3nc(-c4ccnc(N[C@@H]5CNC(=O)C5)n4)cs3)c2)C1=O` [Example 171], the pIC50 [1] was less than 6.30 and the pIC50 [2] was greater than 7.00.
Work on `CC(=O)N1CC(Nc2nccc(-c3csc(-c4cccc([C@]5(O)CCN(C)C5=O)c4)n3)n2)C1` [Example 172] yielded a pIC50 [1] of less than 6.30 and a pIC50 [2] of 6.30 to 7.00.
For `CN1CC[C@@](O)(c2cccc(-c3nc(-c4ccnc(NCCS(C)(=O)=O)n4)cs3)c2)C1=O` [Example 173], the pIC50 [1] was less than 6.30 and the pIC50 [2] was 6.30 to 7.00.
With `CN1CC[C@@](O)(c2cccc(-c3nc(-c4ccnc(NCCCO)n4)cs3)c2)C1=O` [Example 174] the pIC50 [1] was less than 6.30 and the pIC50 [2] was greater than 7.00.
`Cc1nnc(Nc2nccc(-c3csc(-c4cccc([C@]5(O)CCN(C)C5=O)c4)n3)n2)o1` [Example 175] showed a pIC50 [1] of less than 6.30 and a pIC50 [2] of 6.30 to 7.00.
`CN1CC[C@@](O)(c2cccc(-c3nc(-c4ccnc(Nc5ccnn5C)n4)cs3)c2)C1=O` [Example 176] showed a pIC50 [1] greater than 7.00 and a pIC50 [2] greater than 7.00.
`CN1CC[C@@](O)(c2cccc(-c3nc(-c4ccnc(Nc5cnn(C)c5)n4)cs3)c2)C1=O` [Example 177] showed a pIC50 [1] greater than 7.00 and a pIC50 [2] greater than 7.00.
With `Cc1c(Nc2nccc(-c3csc(-c4cccc([C@]5(O)CCN(C)C5=O)c4)n3)n2)ncn1C` [Example 178] the pIC50 [1] was less than 6.30 and the pIC50 [2] was less than 6.30.
`CN1CC[C@@](O)(c2cccc(-c3nc(-c4ccnc(Nc5cn6ccccc6n5)n4)cs3)c2)C1=O` [Example 179] gave a pIC50 [1] of less than 6.30 and a pIC50 [2] of less than 6.30.
`CN1CC[C@@](O)(c2cccc(-c3nc(-c4ccnc(N[C@H]5C[C@@H](O)C5)n4)cs3)c2)C1=O` [Example 180] was tested, and the pIC50 [1] was less than 6.30 and the pIC50 [2] was 6.30 to 7.00.
`CN1CC[C@@](O)(c2cccc(-c3nc(-c4ccnc(NC5CCOCC5)n4)cs3)c2)C1=O` [Example 181] showed a pIC50 [1] of less than 6.30 and a pIC50 [2] of 6.30 to 7.00.
Compound `CN1CC[C@@](O)(c2cccc(-c3nc(-c4ccnc(NCc5ccccn5)n4)cs3)c2)C1=O` [Example 182] has a pIC50 [1] of less than 6.30 and a pIC50 [2] of 6.30 to 7.00.
`CN1CC[C@@](O)(c2cccc(-c3nc(-c4ccnc(NCc5cnn(C)c5)n4)cs3)c2)C1=O` [Example 183] was tested, and the pIC50 [1] was less than 6.30 and the pIC50 [2] was greater than 7.00.
`CN1CC[C@@](O)(c2cccc(-c3nc(-c4ccnc(NCc5ccn(C)n5)n4)cs3)c2)C1=O` [Example 184] was tested, and the pIC50 [1] was less than 6.30 and the pIC50 [2] was greater than 7.00.
`C[C@@H](Nc1nccc(-c2csc(-c3cccc([C@]4(O)CCN(C)C4=O)c3)n2)n1)c1ccccn1` [Example 185] gave a pIC50 [1] of less than 6.30 and a pIC50 [2] greater than 7.00.
`C[C@H](Nc1nccc(-c2csc(-c3cccc([C@]4(O)CCN(C)C4=O)c3)n2)n1)c1ccccn1` [Example 186] gave a pIC50 [1] of less than 6.30 and a pIC50 [2] of 6.30 to 7.00.
In the case of `CN1CC[C@@](O)(c2cccc(-c3nc(-c4ccnc(NCCc5cnn(C)c5)n4)cs3)c2)C1=O` [Example 187], the pIC50 [1] was less than 6.30 and the pIC50 [2] was greater than 7.00.
Work on `CN1CC[C@@](O)(c2cccc(-c3nc(-c4ccnc(NC5CC6(CC(O)C6)C5)n4)cs3)c2)C1=O` (stereo partly drawn) [Example 188] yielded a pIC50 [1] of less than 6.30 and a pIC50 [2] of 6.30 to 7.00.
`CN1CC[C@@](O)(c2cccc(-c3nc(-c4ccnc(NCCc5ccccn5)n4)cs3)c2)C1=O` [Example 189] showed a pIC50 [1] of less than 6.30 and a pIC50 [2] of 6.30 to 7.00.
`CN1CC[C@@](O)(c2cccc(-c3nc(-c4ccnc(NCC5CCO5)n4)cs3)c2)C1=O` (stereo partly drawn) [Example 190] was tested, and the pIC50 [1] was less than 6.30 and the pIC50 [2] was 6.30 to 7.00.
In the case of `CN1CC[C@@](O)(c2cccc(-c3nc(-c4ccnc(NC5(CO)CCC5)n4)cs3)c2)C1=O` [Example 191], the pIC50 [1] was less than 6.30 and the pIC50 [2] was greater than 7.00.
`CN1CC[C@@](O)(c2cccc(-c3nc(-c4ccnc(NC[C@H]5CCOC5)n4)cs3)c2)C1=O` [Example 192] was tested, and the pIC50 [1] was less than 6.30 and the pIC50 [2] was 6.30 to 7.00.
Work on `CN1CC[C@@](O)(c2cccc(-c3nc(-c4ccnc(NCc5cnccn5)n4)cs3)c2)C1=O` [Example 194] yielded a pIC50 [1] of less than 6.30 and a pIC50 [2] of 6.30 to 7.00.
Work on `CN1CC[C@@](O)(c2cccc(-c3nc(-c4ccnc(NCc5cn(C)cn5)n4)cs3)c2)C1=O` [Example 196] yielded a pIC50 [1] of less than 6.30 and a pIC50 [2] of 6.30 to 7.00.
Compound `CN1CC[C@@](O)(c2cccc(-c3nc(-c4ccnc(NCc5ccnn5C)n4)cs3)c2)C1=O` [Example 197] has a pIC50 [1] of less than 6.30 and a pIC50 [2] greater than 7.00.
`CN1CC[C@@](O)(c2cccc(-c3nc(-c4ccnc(NCCn5cccn5)n4)cs3)c2)C1=O` [Example 198] was tested, and the pIC50 [1] was less than 6.30 and the pIC50 [2] was 6.30 to 7.00.
For `CC(Nc1nccc(-c2csc(-c3cccc([C@]4(O)CCN(C)C4=O)c3)n2)n1)c1ncco1` (stereo partly drawn) [Example 199], the pIC50 [1] was less than 6.30 and the pIC50 [2] was greater than 7.00.
